Patent US20070270348A1, “Compositions and Methods for Modulating Insulin-Activated Nitric Oxide Synthase” (priority 2004, published 2007)
Entries after “also recorded” stand apart in the source; their conditions may differ. Where two headings read alike, the source gives them in different places. Ends that are not written are not given here.

Columns and labels:
membrane tyrosine kinase = assay: Membrane tyrosine kinase activation; type: biochemical, mice; settings: insulin 200 μU/ml, allimin 50 μg/ml, none = 100, mean ± SD
Description: (§1) The in vitro effect of allimin on glucose transport and glucose oxidation was compared with that of insulin in mice epitrochlearis muscle which is reported to be a model target tissue for insulin action. […] Addition of NAME to the incubation mixture inhibited the insulin-mimicking effect of allimin on both glucose transport and glucose oxidation. In another study, membranes from epitrochlearis muscle were prepared and the effect of allimin on the activation of the membrane tyrosine kinase and PI3 kinase were determined by incubating the membrane preparation with either insulin or allimin.
The effect of allimin on the activation of epitrochlearis muscle membrane was determined using monoclonal anti-phosphotyrosine kinase antibody, Glu^80 Tyr^80 copolymer, and [^32P]-ATP and compared with that of insulin.
(§2) Mice epitochlearis muscle and the membrane of the muscle were prepared. Glucose transport activity was determined by incubating […] of epitochlearis muscle in Krebs-Ringer buffer, pH 7.4, in the presence of either insulin ([…]) or allimin ([…]) using a 2-deoxy D-^14C glucose. Glucose oxidation was determined by incubating […] of epitrochlearis muscle in Krebs-Ringer buffer, pH 7.4, in the presence of either insulin or allimin as indicated using U-14C glucose. […]

[1] = tested on: alloxan-induced diabetic mice; settings: for duration of euglycemia / normal glucose levels after one dose: single oral bolus; for plasma glucose level: oral allimin
Description: To determine whether the increased plasma nitric oxide level achieved through the oral administration of allimin would result in the decrease of elevated plasma glucose levels in diabetic mice, the plasma glucose level was continuously monitored. […] In a further study, diabetic mice were injected with insulin (200 μunits/25 g) in their hind leg muscle instead of oral administration of allimin.
Inbred albino mice of both sexes were raised in an institutional facility from birth to age 2 months and weighed between 20-25 grams. These mice were allowed free access to feed and sterile water under 12 hour cycles of alternating light and dark. A total of 60 mice were studied. Group I consisted of 20 mice that were divided into 4 subgroups of 5 mice per subgroup. […] Group II consisted of 20 mice that were divided in 4 groups, 5 mice in each subgroup. All of the mice were made diabetic, one of the diabetic subgroup of mice received insulin and the second diabetic subgroup received oral administration of allimin.
Alloxan was used to induce diabetes in mice in accordance with standard methods. Blood glucose levels were determined by using glucose oxidase strips in a glucometer. The mice were considered to be diabetic when the blood glucose level after overnight fasting were 250-300 mg/dl as compared to 70-80 mg/dl in non-diabetic mice. […] When these diabetic mice were fed ad libitum, the blood glucose level increased to 400-450 mg/dl after 2 hours of feeding.

[2] = tested on: mice epitrochlearis muscle; assay: Glucose oxidation in epitrochlearis muscle; type: cell-based; settings: insulin 200 μU/ml, allimin 50 μg/ml, NAME 10 μg/ml, mean ± SD
Description: as §1
The effect of allimin on the oxidation of glucose was compared with that of insulin. […] Glucose oxidation was determined.
as §2

[3] = tested on: mice epitrochlearis muscle; assay: Glucose transport activity in epitrochlearis muscle; type: cell-based; settings: insulin 200 μU/ml, allimin 50 μg/ml, NAME 10 μg/ml, mean ± SD
Description: as §1
Mice epitochlearis muscle and the membrane of the muscle were prepared. Glucose transport activity was determined by incubating […] of epitochlearis muscle in Krebs-Ringer buffer, pH 7.4, in the presence of either insulin ([…]) or allimin ([…]) using a 2-deoxy D-^14C glucose. Glucose oxidation was determined by incubating […] of epitrochlearis muscle in Krebs-Ringer buffer, pH 7.4, in the presence of either insulin or allimin as indicated using U-14C glucose. Insulin- or allimin-induced activation of tyrosine kinase and PI3 kinase activities of the membrane preparation were determined using anti-phosphotyrosine antibody and PI3 kinase antibody, respectively, as described. Results shown in Table 4 are mean ±SD of 5 to 6 experiments using different animals.

PI3 kinase = PI3 kinase activation of muscle membrane; type: biochemical, mice; settings: insulin 200 μU/ml, allimin 50 μg/ml, none = 100, mean ± SD
Description: as §1
The activation of PI3 kinase of mice epitrochlearis muscle membrane either by allimin or insulin was determined using PI3 kinase antibody. […] The PI3 kinase activity was determined by CHCl3—CH3OH extraction and HPLC.
as §2

human erythrocytes = assay: Stimulation of nitric oxide synthesis from l-arginine in human erythrocyte suspension; type: cell-based
Description: Stimulation of nitric oxide synthesis from l-arginine by allimin in human erythrocytes was shown by incubation of a human erythrocyte suspension with different concentrations of purified allimin.
Fractions (1.5 ml each) were collected and the ability of each fraction to stimulate nitric oxide synthesis from l-arginine in human erythrocytes was determined.
The stimulation of nitric oxide synthesis was determined by assaying 0.1 ml of aqueous extracts of garlic or benzene purified allimin or different fractions from the SEPHADEX® column to erythrocyte suspensions in Kreb's buffer, pH 7.4. The formation of nitric oxide in the reaction mixture was quantitated by the conversion of oxyhemoglobin to methemoglobin. Quantitative amounts of nitric oxide in the reaction mixture were confirmed independently by chemiluminescence technique. Briefly 1.0 ml of the reaction supernatant was treated with 15 mM (final concentration) of oxyhemoglobin under N2. The spectral changes at 650, 630 and 575 nm due to the conversion of oxyhemoglobin to methemoglobin was continuously monitored by using a scanning BECKMAN spectrophotometer to quantitate nitric oxide formation using greater than 99% percent pure preparation of nitric oxide.
Blood was collected from healthy male and female volunteers, between the ages of 25-50 years, who had not taken any medication for at least for 14 days prior to the donation of blood. The blood was anti-coagulated by adding 1 volume 130 mM sodium citrate to 9 volumes of blood, mixed by gentle inversion, and the erythrocyte suspension was prepared.

EAC cells = assay: Viability of EAC cells in peritoneal fluid; type: in vivo, Swiss albino mice
Description: Experiments were performed to determine the effects of allimin on the viability of EAC cells, a measure of the anti-neoplastic activity of allimin. Total EAC count (dead+viable cells) in peritoneal fluid was determined after 14 days of injection of EAC in the allimin treated and the untreated mice. […] It was noted that 25% of the viable EAC in the fluid of allimin-treated mice were twice as large (size) as compared to those in the untreated mice. This increase in cell size is indicative of the onset of death and the loss of the ability to regulate osmotic pressure (Ballas (1999) Merck Manual, Merck Research Laboratories, Whitehouse Station, N.J., pp. 1002-1023). The cellular basis for the decreased viability of the carcinoma cells in the allimin-treated mice was tested using a DNA fragmentation assay (Liu et al. (2000) Nucleic Acids Res. 28:4180-4188).

[4] = tested on: Ehrlich's ascitic carcinoma cells (EAC cells); assay: Survival and body weight of mice with Ehrlich's carcinoma ascites; settings: daily allimin
Description: In addition to normal or control mice, ascitic carcinoma was induced in Swiss albino mice by injecting approximately 10^6 Ehrlich's ascitic carcinoma cells (EAC cells) into the peritoneal cavity of mice (Hartveit et al. (1970) Acta. Pathol. Microbiol. Scand. 78:516-524). Animals were divided into two groups, one group receiving laboratory chow alone and the other receiving allimin (75 micrograms/kg body weight/day) along with laboratory chow. Animals in each group were given the respective diets for 10 days before both groups were injected with EAC cells. Dietary treatment then continued during ascites development such that an increase of an EAC cell count to 5×10^6 cells/ml was achieved.

[5] = tested on: ADP-induced platelet aggregation; assay: ADP-induced platelet aggregation in platelet rich plasma; type: cell-based; settings: 40 nM, 30 minutes at 23° C., 6 μM ADP
Description: Given the role of nitric oxide in the function of platelets it is was determined whether allimin could modulate platelet aggregation. Platelet Rich Plasma (PRP) was isolated from citrated blood and incubated with […] Allimin for 30 minutes at 23° C. Subsequently, 6 μM adenosine 5′-diphosphate (ADP) was added and inhibition of ADP-induced platelet aggregation was recorded and compared with a control.

[6] = tested on: non-diabetic and alloxan-induced diabetic mice; assay: Plasma nitric oxide level after oral administration in mice; type: in vivo
Description: The effect of oral administration of allimin on the plasma nitric oxide level in diabetic and non-diabetic mice was determined using alloxan-induced diabetic mice as compared to normal non-diabetic mice. […] Allimin was orally administered (75 μg/kg body weight) to non-diabetic and alloxan-induced diabetic mice. The plasma nitric oxide level was measured on different days. Results were obtained from 10 mice in each group in triplicate. While the plasma nitric oxide level in the diabetic mice was 0.1±0.02 nmol/ml, the nitric oxide level in the non-diabetic mice was 0.75±0.05 nmol/ml (p<0.05). Upon oral administration of allimin (75 micrograms/kg body weight), the plasma nitric oxide level was increased to 0.45±0.05 nmol/ml within 24 hours and continued to increase thereafter, to a maximum of 0.8±0.1 nmol/ml on the third day. On the fourth day, the plasma nitric oxide level began to gradually decrease. On the sixth day, the plasma nitric oxide level returned to the pretreatment level in the diabetic mice.
A total of 60 mice were studied.

mouse erythrocytes = assay: Nitric oxide production in erythrocytes of mice injected with EAC cells; settings: for NO produced by erythrocytes: EAC mice, allimin 75 micrograms/kg/day oral
Description: Using a well-established mouse model for anti-neoplastic drug testing (Hartveit et al. (1970) Acta. Pathol. Microbiol. Scand. 78:516-524), the effects of oral administration of allimin on the production of nitric oxide in mouse erythrocytes was examined. Blood was drawn from the tail vein of Swiss albino mice (2 months of age) and was anti-coagulated by adding sodium citrate to the blood sample. The erythrocyte suspension was prepared according to standard methods (Ray et al. (1986) Biochim. Biophys. Acta. 856:421-427). […] The formation of nitric oxide in the reaction mixture was quantitated by the conversion of oxyhemoglobin to methemaglobin (Jia et al. (1996) Nature 380:221-226) and verified by chemiluminescence techniques (Sinha et al. (1999) Life Sci. 265:2687-2696). In addition to normal or control mice, ascitic carcinoma was induced in Swiss albino mice by injecting approximately 10^6 Ehrlich's ascitic carcinoma cells (EAC cells) into the peritoneal cavity of mice (Hartveit et al. (1970) Acta. Pathol. Microbiol. Scand. 78:516-524). Animals were divided into two groups, one group receiving laboratory chow alone and the other receiving allimin (75 micrograms/kg body weight/day) along with laboratory chow. Animals in each group were given the respective diets for 10 days before both groups were injected with EAC cells. Dietary treatment then continued during ascites development such that an increase of an EAC cell count to 5×10^6 cells/ml was achieved.
For the preparation of erythrocyte suspensions from mice, blood was drawn from the tail vein and anti-coagulated by adding sodium citrate to the blood sample and a suspension was made as described by Ray et al. ((1986) Biochim. Biophys. Acta 856:421-427).

## Insulin: Insulin (trade name HUMULIN, obtained from Eli Lilly) [reference compound]
Membrane tyrosine kinase
  Tyrosine kinase activation: 210 ± 18 % activation
[1]; diabetic animals, single intramuscular injection
  duration of control of hyperglycemia: less than 24 hours
[1]; diabetic mice, 200 μunits/25 g in hind leg muscle, within next 24 hours
  blood glucose level after injection: 350 ± 20 mg/dL
[1]; diabetic mice, oral
  effect of oral administration on elevated blood glucose level: no effect
[2]
  Glucose Oxidation: 278 ± 80 nmol/g protein/minute
[3]
  Glucose transport: 75 ± 4 nmol/g protein/minute
PI3 kinase
  PI3 kinase activation: 155 ± 10 % activation

## COC(=O)[C@@H](N)CCCNC(=N)N[N+](=O)[O-] [NAME, NG-nitro L-arginine methyl ester, reference compound]
Human erythrocytes; 10 μM NAME added to reaction mixture with allimin
  inhibition of allimin-stimulated nitric oxide synthesis: completely inhibited; also recorded: complete inhibition

## Allimin (XMIPTNGEGLYAGQSLDVEQYKFIMRPDDNLVXYX; X: residue not identified in the source; listed as Allium sp.)
Membrane tyrosine kinase
  Tyrosine kinase activation: 215 ± 10 % activation
[1]; diabetic animals
  duration of euglycemia / normal glucose levels after one dose: up to four or five days
[1]; diabetic animals, listed as allimin
  duration of euglycemia / normal glucose levels after one dose: four to five consecutive days
[1]; diabetic mice, next four days
  plasma glucose level: 120 to 130 mg/dL
[1]; diabetic mice, sixth day
  plasma glucose level: above 350 mg/dl
[1]; diabetic mice, within next 12 hours, initial 470±20
  plasma glucose level: 120 ± 10 mg/dL
Human erythrocytes; human erythrocyte suspension
  concentration at which synthesis of nitric oxide was maximally stimulated: 8 nM
Human erythrocytes; purification step of garlic extract, stimulation of NO synthesis
  Specific Activity (nmol NO/mg/h): 563.75 nmol NO/mg/h
[2]
  Glucose Oxidation: 306 ± 82 nmol/g protein/minute
[3]
  Glucose transport: 82 ± 6 nmol/g protein/minute
EAC cells; 14 days after injection of EAC
  total EAC count (dead+viable cells) in peritoneal fluid: 7×10^6 cells/ml
EAC cells; 14 days after injection of EAC, untreated 3×10^4
  dead EAC count in peritoneal fluid: 2×10^5 cells/ml
EAC cells; oral allimin
  pathway of EAC cell death (DNA fragmentation assay): induced the necrotic pathway
EAC cells; peritoneal fluid of treated mice
  viable EAC twice as large as in untreated mice: 25%
[4]; controls succumbed by day 20
  survival at 20 days: survived the EAC carcinogenic insult at 20 days
[4]; p<0.01
  mice surviving at least 40 days: Ten percent
PI3 kinase
  PI3 kinase activation: 187 ± 12 % activation
[5]
  inhibition of ADP-induced platelet aggregation: potent inhibitor of platelet aggregation
[6]; diabetic mice, one time oral bolus dose
  duration of elevation of plasma nitric oxide: about five days; also recorded: four to five days
[6]; diabetic mice, single oral 75 micrograms/kg
  day plasma nitric oxide level returned to pretreatment level: sixth day
[6]; diabetic mice, single oral 75 micrograms/kg, third day
  plasma nitric oxide level, maximum: 0.8 ± 0.1 nmol/mL
[6]; diabetic mice, single oral 75 micrograms/kg, within 24 hours, pretreatment 0.1±0.02
  plasma nitric oxide level: 0.45 ± 0.05 nmol/mL
[6]; non-diabetic mice, oral feeding
  day plasma nitric oxide level decreased to pretreatment level: fourth day
Mouse erythrocytes; allimin fed 10 days after the carcinogenic insult, 4.02% without
  nitric oxide production from erythrocytes restored to: 92.78%
Mouse erythrocytes; day 1
  NO produced by erythrocytes: 0.569 ± 0.02 nmol NO produced/10^8 cells/hour
Mouse erythrocytes; day 5
  NO produced by erythrocytes: 0.392 ± 0.01 nmol NO produced/10^8 cells/hour
Mouse erythrocytes; day 10
  NO produced by erythrocytes: 0.408 ± 0.02 nmol NO produced/10^8 cells/hour
Mouse erythrocytes; day 15
  NO produced by erythrocytes: 0.440 ± 0.01 nmol NO produced/10^8 cells/hour
Mouse erythrocytes; day 20
  NO produced by erythrocytes: 0.498 ± 0.02 nmol NO produced/10^8 cells/hour
Mouse erythrocytes; day 25
  NO produced by erythrocytes: 0.532 ± 0.02 nmol NO produced/10^8 cells/hour
Mouse erythrocytes; day 30
  NO produced by erythrocytes: 0.528 ± 0.03 nmol NO produced/10^8 cells/hour
Mouse erythrocytes; twenty days after EAC injection, dietary allimin, 86.72% without
  reduction of nitric oxide production in erythrocytes: 12.48%
